Measurements as given in PubChem BioAssay AID1845195 (Molecular Pharmacology Branch, DTP, NCI, 2023).

Test system: 156681-154-R-J1 tumor spheroid viability
Assay: Anticancer human tumor 156681-154-R-J1 patient-derived melanoma cell line growth inhibition
Conditions: spheroids with HUVEC and MSC; for IC50: curve of first compound; for viability, T/C: stronger effect = lower value; active = viability on the fitted dose curve at most 10% of control; inactive = the rest
Excerpt: Multicellular complex tumor spheroid response to DNA repair inhibitors in combination with DNA-damaging drugs
This study explores the anticancer activities of DNA-damaging drugs and inhibitors of DNA damage repair, both as single agents and in combinations. Complex tumor spheroids comprised of malignant cells, endothelial cells and mesenchymal stem cells served as an in vitro model for human solid tumors. This model system incorporates physiologically relevant features and patient-derived or established malignant cell lines with clinically relevant genetic alterations from many tumor types. Twenty-six patient-derived or established malignant cell lines were evaluated representing sarcoma, melanoma, small cell lung cancer (SCLC), non-small cell lung cancer (NSCLC), as well as bladder, ovarian and pancreatic cancers. The concentration ranges selected for each drug and investigational agent were based upon clinically achievable concentrations if the clinical Cmax of the agent was known.
Compounds. The drugs and compounds olaparib (NSC753686), talazoparib (NSC767125), berzosertib (NSC777718), elimusertib (NSC800525), nedisertib (NSC802822), VX-984 (NSC792969), AZD-1390 (NSC803789), temozolomide (NSC362856), topotecan (NSC609699), trabectedin (NSC813783), staurosporine (NSC755774), and gemcitabine (NSC613327) were obtained from the National Cancer Institute (NCI) Developmental Therapeutics Program Chemical Repository. The FDA-approved anticancer drug set is available from the Developmental Therapeutics Program at https://dtp.cancer.gov/organization/dscb/obtaining/available_plates.htm. […] The stock solutions were prepared in dimethyl sulfoxide (DMSO, Sigma-Aldrich, St. Louis, MO, cat. D2650) at 400-fold the tested concentration and stored at -70 degrees C. Prior to their use, the stock solutions were diluted in fresh medium and the final DMSO concentration in the assay was 0.25% (v/v). All drugs and investigational agents were tested over a range starting from a high concentration at or near the clinical Cmax and decreasing in half-log increments. If the clinical Cmax for an agent had not been determined, the highest concentration tested was 10 microM.
Cell Lines. The patient-derived cancer cell (PDC) lines: 156681-154-R-J1-PDC, 283228-195-R-J1-PDC, 287954-098-R-J1-PDC, 292921-168-R-J2-PDC, 349418-098-R-PDC, 425362-245-T-J1-PDC, 556581-035-R-J1-PDC, and BL0293-F563-PDC were received from the NCI Patient-Derived Models Repository (PDMR, https://pdmr.cancer.gov). The established cell lines HS-SY-2 (RRID:CVCL_8719), MPNST, and SYO-1 (RRID:CVCL_7146) were obtained from the Sloan Kettering Institute. The alveolar soft parts sarcoma cell line ASPS-1 (RRID:CVCL_S738) was established at the NCI and grown from internal seed stocks. The following established cell lines were purchased from the American Type Culture Collection (ATCC, Manassas, VA): G-401 (ATCC, cat. CRL-1441, RRID:CVCL_0270), SW982 (ATCC, cat. HTB-93, RRID:CVCL_1734), VA-ES-BJ (ATCC, cat. CRL-2138, RRID:CVCL_1785), NCI-H719 (ATCC, cat. CRL-5837, RRID:CVCL_1582), NCI-H196 (ATCC, cat. CRL-5823, RRID:CVCL_1509), NCI-H841 (ATCC, cat. CRL-5845, RRID:CVCL_1595), NCI-H1618 (ATCC, cat. CRL-5879, RRID:CVCL_1480), NCI-H1876 (ATCC, cat. CRL-5902, RRID:CVCL_1503), DMS 114 (ATCC, cat. CRL-2066; RRID:CVCL_1174), NCI-H211 (ATCC, cat. CRL-5824; RRID:CVCL_1529), and SW 1271 (ATCC, cat. CRL-2177, RRID:CVCL_1716). The small cell lung cancer cell line COR-L88 was purchased from Sigma-Aldrich (cat. 92031917-1VL, RRID:CVCL_1141). The non-small cell lung cancer cell lines NCI-H226 (RRID:CVCL_1544) and NCI-H322M (RRID:CVCL_1557) were established at the NCI and grown from internal seed stocks. Pooled donor human umbilical vein endothelial cells (HUVEC, Lonza, cat. CC-2519) and human mesenchymal stem cells (hMSC, Lonza, cat. PT-2501) were purchased from Lonza (Walkersville, MD).
Cell Culture. All cells were maintained in an incubator at 37 degrees C and 5% CO2 with 95% humidity. […]
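Note: spheroids exposed to compounds for 7 days before readout.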
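Throughout, for viability, T/C: percent of vehicle control viability where 100% = DMSO-treated spheroids.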

Cc1cc(C)c(CNC(=O)c2cc(-c3ccc(CN4CCOCC4)cc3)cc3c2cnn3C2CCCC2)c(=O)[nH]1 + CC[C@@]1(O)C(=O)OCc2c1cc1n(c2=O)Cc2cc3c(CN(C)C)c(O)ccc3nc2-1
< 31.6 nM: IC50 (second compound 0.0949 µM) | IC50 (second compound 0.3 µM)
> 10000 nM: IC50 (second compound 0.003 µM) | IC50 (second compound 0.00949 µM)
8490 nM: IC50 (second compound 0.03 µM)
inactive: viability, T/C (second compound 0.003 µM, first compound 0.0316 µM) 137% | viability, T/C (second compound 0.003 µM, first compound 0.1 µM) 111% | viability, T/C (second compound 0.003 µM, first compound 0.316 µM) 86.7% | viability, T/C (second compound 0.003 µM, first compound 1 µM) 87.8% | viability, T/C (second compound 0.003 µM, first compound 3.16 µM) 84.4% | viability, T/C (second compound 0.003 µM, first compound 10 µM) 82.9% | viability, T/C (second compound 0.00949 µM, first compound 0.0316 µM) 83% | viability, T/C (second compound 0.00949 µM, first compound 0.1 µM) 81.6% | viability, T/C (second compound 0.00949 µM, first compound 0.316 µM) 73.8% | viability, T/C (second compound 0.00949 µM, first compound 1 µM) 84.8% | viability, T/C (second compound 0.00949 µM, first compound 3.16 µM) 84.5% | viability, T/C (second compound 0.00949 µM, first compound 10 µM) 79.5% | viability, T/C (second compound 0.03 µM, first compound 0.0316 µM) 65.7% | viability, T/C (second compound 0.03 µM, first compound 0.1 µM) 66.6% | viability, T/C (second compound 0.03 µM, first compound 0.316 µM) 55.4% | viability, T/C (second compound 0.03 µM, first compound 1 µM) 57.7% | viability, T/C (second compound 0.03 µM, first compound 3.16 µM) 49.3% | viability, T/C (second compound 0.03 µM, first compound 10 µM) 51% | viability, T/C (second compound 0.0949 µM, first compound 0.0316 µM) 23.4% | viability, T/C (second compound 0.0949 µM, first compound 0.1 µM) 17.8% | viability, T/C (second compound 0.0949 µM, first compound 0.316 µM) 25.1% | viability, T/C (second compound 0.0949 µM, first compound 1 µM) 20.6% | viability, T/C (second compound 0.0949 µM, first compound 3.16 µM) 17.5% | viability, T/C (second compound 0.0949 µM, first compound 10 µM) 22.2% | viability, T/C (second compound 0.3 µM, first compound 0.0316 µM) 31.3% | viability, T/C (second compound 0.3 µM, first compound 0.1 µM) 29.5% | viability, T/C (second compound 0.3 µM, first compound 0.316 µM) 31.8% | viability, T/C (second compound 0.3 µM, first compound 1 µM) 30.9% | viability, T/C (second compound 0.3 µM, first compound 3.16 µM) 27.6% | viability, T/C (second compound 0.3 µM, first compound 10 µM) 30.6%

Cc1sc2c(c1C)C(c1ccc(Cl)cc1)=NC(CC(=O)Nc1ccc(O)cc1)c1nnc(C)n1-2 (stereo not given) + CC[C@@]1(O)C(=O)OCc2c1cc1n(c2=O)Cc2cc3c(CN(C)C)c(O)ccc3nc2-1
78.6 nM: IC50 (second compound 0.03 µM)
1960 nM: IC50 (second compound 0.00949 µM)
< 9.49 nM: IC50 (second compound 0.0949 µM) | IC50 (second compound 0.3 µM)
1460 nM: IC50 (second compound 0.003 µM)
inactive: viability, T/C (second compound 0.003 µM, first compound 0.00949 µM) 155% | viability, T/C (second compound 0.003 µM, first compound 0.03 µM) 103% | viability, T/C (second compound 0.003 µM, first compound 0.0949 µM) 81.1% | viability, T/C (second compound 0.003 µM, first compound 0.3 µM) 70% | viability, T/C (second compound 0.003 µM, first compound 0.949 µM) 61.1% | viability, T/C (second compound 0.003 µM, first compound 3 µM) 47.4% | viability, T/C (second compound 0.00949 µM, first compound 0.00949 µM) 68.4% | viability, T/C (second compound 0.00949 µM, first compound 0.03 µM) 88.6% | viability, T/C (second compound 0.00949 µM, first compound 0.0949 µM) 82.6% | viability, T/C (second compound 0.00949 µM, first compound 0.3 µM) 75.4% | viability, T/C (second compound 0.00949 µM, first compound 0.949 µM) 62.4% | viability, T/C (second compound 0.00949 µM, first compound 3 µM) 42.8% | viability, T/C (second compound 0.03 µM, first compound 0.00949 µM) 50.1% | viability, T/C (second compound 0.03 µM, first compound 0.03 µM) 54.9% | viability, T/C (second compound 0.03 µM, first compound 0.0949 µM) 51.3% | viability, T/C (second compound 0.03 µM, first compound 0.3 µM) 39% | viability, T/C (second compound 0.03 µM, first compound 0.949 µM) 29.8% | viability, T/C (second compound 0.03 µM, first compound 3 µM) 19.1% | viability, T/C (second compound 0.0949 µM, first compound 0.00949 µM) 22.5% | viability, T/C (second compound 0.0949 µM, first compound 0.03 µM) 21.8% | viability, T/C (second compound 0.0949 µM, first compound 0.0949 µM) 21% | viability, T/C (second compound 0.0949 µM, first compound 0.3 µM) 22.5% | viability, T/C (second compound 0.0949 µM, first compound 0.949 µM) 24.6% | viability, T/C (second compound 0.0949 µM, first compound 3 µM) 24.4% | viability, T/C (second compound 0.3 µM, first compound 0.00949 µM) 33.2% | viability, T/C (second compound 0.3 µM, first compound 0.03 µM) 29.1% | viability, T/C (second compound 0.3 µM, first compound 0.0949 µM) 31.1% | viability, T/C (second compound 0.3 µM, first compound 0.3 µM) 24.8% | viability, T/C (second compound 0.3 µM, first compound 0.949 µM) 25.4% | viability, T/C (second compound 0.3 µM, first compound 3 µM) 16.5%
